# Laboratory results as given in the supplement of paper PMC11061612.
# Legend:
# Assay in all cases: Bliss excess, mean over the matrix (fraction); higher = more synergy
# [1] = test system: COR-L88 (Small Cell Lung Carcinoma)
# Summary of the method: (§1)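 Cell lines grown in DMEM/F12 or RPMI with 10% FBS were plated in 1536-well plates and held 24 hours at 37°C, 5% CO2 before 72 hours of exposure to two-drug dose matrices, with DMSO typically at 0.2%. CellTiter-Glo 2.0 luminescence gave viability, which was converted to inhibition. Vehicle wells were set to 0 and blank wells to 1. Combination Emax is the second-highest inhibition in the matrix, and Bliss excess is the observed combination effect minus the expected EA + EB − EA·EB, where EA and EB are the single-agent effects.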
# [2] = test system: OVCAR-3 (Ovarian Carcinoma)
# Summary of the method: as §1
# [3] = test system: MOLP-8 (Plasma Cell Myeloma)
# Summary of the method: as §1
# [4] = test system: LS-1034 (Colorectal Carcinoma)
# Summary of the method: as §1
# ES6 (Ewing's Sarcoma) = test system: ES6 (Ewing's Sarcoma)
# Summary of the method: as §1
# [5] = test system: C-33-A (Cervical Carcinoma)
# Summary of the method: as §1
# NB1 (Neuroblastoma) = test system: NB1 (Neuroblastoma)
# Summary of the method: as §1
# [6] = test system: MM1S (Plasma Cell Myeloma)
# Summary of the method: as §1
# T47D (Breast Carcinoma) = test system: T47D (Breast Carcinoma)
# Summary of the method: as §1
# [7] = test system: HT-1080 (Other Solid Carcinomas)
# Summary of the method: as §1
# [8] = test system: DBTRG-05MG (Glioblastoma)
# Summary of the method: as §1
# [9] = test system: OAW-28 (Ovarian Carcinoma)
# Summary of the method: as §1
# [10] = test system: CPC-N (Small Cell Lung Carcinoma)
# Summary of the method: as §1
# [11] = test system: P32-ISH (Burkitt's Lymphoma)
# Summary of the method: as §1
# NCI-H226 (Mesothelioma) = test system: NCI-H226 (Mesothelioma)
# Summary of the method: as §1
# [12] = test system: PA-TU-8988T (Pancreatic Carcinoma)
# Summary of the method: as §1
# GAK (Melanoma) = test system: GAK (Melanoma)
# Summary of the method: as §1
# SK-N-SH (Neuroblastoma) = test system: SK-N-SH (Neuroblastoma)
# Summary of the method: as §1
# [13] = test system: NCI-H1876 (Small Cell Lung Carcinoma)
# Summary of the method: as §1
# [14] = test system: P30-OHK (B-Lymphoblastic Leukemia)
# Summary of the method: as §1
SMILES,Bliss excess [1],Bliss excess [2],Bliss excess [3],Bliss excess [4],Bliss excess (ES6 (Ewing's Sarcoma)),Bliss excess [5],Bliss excess (NB1 (Neuroblastoma)),Bliss excess [6],Bliss excess (T47D (Breast Carcinoma)),Bliss excess [7],Bliss excess [8],Bliss excess [9],Bliss excess [10],Bliss excess [11],Bliss excess (NCI-H226 (Mesothelioma)),Bliss excess [12],Bliss excess (GAK (Melanoma)),Bliss excess (SK-N-SH (Neuroblastoma)),Bliss excess [13],Bliss excess [14]
"CC1(C)CCC(CN2CCN(c3ccc(C(=O)NS(=O)(=O)c4ccc(NCC5CCOCC5)c([N+](=O)[O-])c4)c(Oc4cnc5[nH]ccc5c4)c3)CC2)=C(c2ccc(Cl)cc2)C1 [Venetoclax] + C[C@@H]1COCCN1C2=NC(=NC(=C2)C3(CC3)[S@](=N)(=O)C)C4=C5C=CNC5=NC=C4 [AZD6738] (first compound max 1 µM, 7x7, partner max 10 µM)",0.0109,-0.0108,-0.0193,-0.0255,-0.0314,-0.0127,-0.0444,0.0444,-0.0634,-0.0253,0.0023,-0.0216,-0.0526,0.0365,-0.0383,0.0107,-0.0586,-0.0671,-0.0358,0.154
"CC1(C)CCC(CN2CCN(c3ccc(C(=O)NS(=O)(=O)c4ccc(NCC5CCOCC5)c([N+](=O)[O-])c4)c(Oc4cnc5[nH]ccc5c4)c3)CC2)=C(c2ccc(Cl)cc2)C1 [Venetoclax] + C[C@@H](Nc1cc(F)cc(F)c1)c1cc(C(=O)N(C)C)cc2c(=O)cc(N3CCOCC3)oc12 [AZD8186] (first compound max 1 µM, 7x7, partner max 3 µM)",0.0393,-0.0062,0.0293,-0.0318,-0.0661,-0.0523,-0.047,0.0377,-0.0159,-0.0311,-0.0251,0.0551,0.0256,0.0385,-0.0577,0.0383,-0.0325,0.0249,-0.0181,0.149
"CC1(C)CCC(CN2CCN(c3ccc(C(=O)NS(=O)(=O)c4ccc(NCC5CCOCC5)c([N+](=O)[O-])c4)c(Oc4cnc5[nH]ccc5c4)c3)CC2)=C(c2ccc(Cl)cc2)C1 [Venetoclax] + Cc1cc2ncnn2cc1Nc1ncc2c(n1)n(C1CCOCC1)c(=O)n2C [AZD7648] (first compound max 1 µM, 7x7, partner max 10 µM)",-0.0121,-0.0259,0.0222,-0.0323,-0.0359,-0.0032,-0.0358,0.0556,-0.0459,-0.0487,-0.0224,0.0005,-0.0219,-0.0154,-0.0552,-0.0251,-0.0209,-0.0125,0.0111,0.0584
"CC1(C)CCC(CN2CCN(c3ccc(C(=O)NS(=O)(=O)c4ccc(NCC5CCOCC5)c([N+](=O)[O-])c4)c(Oc4cnc5[nH]ccc5c4)c3)CC2)=C(c2ccc(Cl)cc2)C1 [Venetoclax] + Cn1cnc2c(F)c(Nc3ccc(Br)cc3Cl)c(C(=O)NOCCO)cc21 [Selumetinib] (first compound max 1 µM, 7x7, partner max 3 µM)",0.0341,-0.017,-0.0737,-0.0644,-0.0321,-0.0033,-0.0466,0.0456,-0.0624,-0.0351,0.0064,0.0047,-0.0454,0.0152,-0.0799,-0.021,0.0238,0.083,-0.0335,0.036
